Key:
[1] = rats, 200 mg/kg/day p.o., cited from earlier work
[2] = about 4 mg/kg/day (200-400 mg/day for human patients); cited from earlier work
[3] = 1 mg b.i.d. (about 30 μg/kg/day), FDA permitted dose levels; cited from earlier work
tryptophan hydroxylase = assay: blockade of tryptophan hydroxylase activation; assay type: biochemical; conditions: activation by metabolic inhibitors such as guanidine and sodium cyanide

| SMILES | hepatocyte changes revealed by post-mortem examination ([1]; 1 year, not detected by routine transaminase determinations) | weight loss ([1]; over the 1-year period, immediate and continuing) | effectiveness in the treatment of anxiety and depression [2] | anxiolytic properties [3] | blockade of tryptophan hydroxylase activation (tryptophan hydroxylase) |
| --- | --- | --- | --- | --- | --- |
| COc1cccc(C2(CCCN(C)C)C(=O)NC(=O)CC2(C)C)c1.Cl (centres unmarked) [hydrochloride salt of AGN 2979] | hepatocyte changes | 40% | effective | only marginally effective | – |
| COc1cccc(C2(CCCN(C)C)C(=O)NC(=O)CC2(C)C)c1 (centres unmarked) [AGN 2979 pamoate, 3(3-methoxyphenyl)-3-(3-dimethylaminopropyl)-4,4-dimethyl-piperidine-2,6-dione pamoate] | – | – | – | – | blocked |
